Reference: US7651978B2, “Selective herbicides based on a substituted phenylsulphonylaminocarbonyl-triazolinone” (Arysta LifeScience North America, LLC, priority 1998, dated 2010)
Counter-ions that a name gives are not always drawn.

Key:
Assay in all cases: Pre-emergence test/greenhouse
Format in all cases: in vivo
Alopecurus = conditions: 504 h, after three weeks, read-out: degree of damage, Alopecurus
Experimental: (§1) Pre-Emergence Test/Greenhouse Solvent: 5 parts by weight of acetone Emulsifier: 1 part by weight of alkylaryl polyglycol ether To produce a suitable preparation of active compound, 1 part by weight of active compound is mixed with the stated amount of solvent, the stated amount of emulsifier is added and the concentrate is diluted with water to the desired concentration. Seeds of the test plants are sown in normal soil. After about 24 hours, the soil is sprayed with the preparation of active compound such that the particular amount of active compound desired is applied per unit area. The concentration of the spray liquor is chosen so that the particular amount of active compound desired is applied in 500 ml of water per hectare. After three weeks, the degree of damage to the plants is assessed in % damage in comparison to the development of the untreated control. The figures denote: • 0%=no effect (like untreated control) • 100%=total destruction

Avena = conditions: 504 h, after three weeks, read-out: degree of damage, Avena
Experimental: as §1

Bromus = conditions: 30 g of ai./ha, after three weeks
Experimental: as §1

Digitaria = conditions: 30 g of ai./ha, after three weeks
Experimental: as §1

Echinochloa = conditions: 30 g of ai./ha, after three weeks
Experimental: as §1

Matricaria = conditions: 30 g of ai./ha, after three weeks
Experimental: as §1

Polygonum = conditions: 30 g of ai./ha, after three weeks
Experimental: as §1

Setaria = conditions: after three weeks
Experimental: as §1

Wheat = conditions: in vivo
Experimental: as §1

SMILES: COc1nn(C(=O)NS(=O)(=O)c2ccccc2OC(F)(F)F)c(=O)n1C [(I)-Na-salt, 2-(2-trifluoromethoxy-phenylsulphonylaminocarbonyl)-4-methyl-5-methoxy-2,4-dihydro-3H-1,2,4-triazol-3-one]
- pest or weed control at 30 g/ha (Alopecurus; 30 g of ai./ha): 100%
- pest or weed control at 250 g/ha (Alopecurus; 250 g ai./ha): 100%
- pest or weed control at 30 g/ha (Avena; 30 g of ai./ha): 95%
- pest or weed control at 250 g/ha (Avena; 250 g ai./ha): 99%
- degree of damage, Bromus (Bromus): 100%
- degree of damage, Digitaria (Digitaria): 100%
- degree of damage, Echinochloa (Echinochloa): 80%
- degree of damage, Matricaria (Matricaria): 100%
- degree of damage, Polygonum (Polygonum): 90%
- degree of damage, Setaria (Setaria; 30 g of ai./ha): 100%
- degree of damage, Setaria (Setaria; 250 g ai./ha): 99%
- compatibility with crop plants (wheat), in words (Wheat): very good compatibility
- degree of damage, Wheat (Wheat; wheat, 3 weeks): 0%
